The record followed here is article PMC6661759 (BMC Chemistry, 2019).

The subject of assay [1] is H. pylori bacterium (DSM 4867). The experiment in a line: Anti-H. pylori activity, well diffusion technique. It counts as cell-based, Helicobacter pylori. Particulars: H. pylori DSM 4867, 2500 µg per well, 24–48 h. The procedure: (§1) Derivatives C4a, C4b and C4d which were found best in urease inhibition and antioxidant activity as well as in terms of docking score were tested further against antibacterial efficiency against Helicobacter pylori DSM 4867 using AHA as a standard and DMSO as control. […] In-vitro results concluded that compound C4a bearing nitro and chloro group at 2nd and 4th position indicated excellent antibacterial action against H. Pylori probably by interacting with the target protein efficiently and inhibited the growth of pathogenic bacteria.
(§2) Since H. Pylori is not acidophilic in nature therefore it requires urease, which produced ammonia by hydrolyzing urea present in stomach, for its survival in acidic gastric medium. Because of virulence nature of urease researchers decided to target its inhibition for anti-H. Pylori drugs. Novel synthesized derivatives were investigated against H. pylori bacterium (DSM 4867, AHA as standard) for their antibacterial activity by using Well diffusion technique. The stock solution of compounds in DMSO (1000 μg/mL) were prepared. Cell suspension was prepared from culture grown on BHI broth. The cell suspensions of all the cultures were adjusted to 1–2 × 10^5 cells/mL. Helicobacter pylori (100 µL) was inoculated by spread plate technique on agar plates (90 mm). […] MIC was determined against Helicobacter pylori by micro broth dilution technique as per NCCLS method.
(In general: Agar diffusion results depend on both activity and mobility in agar.)

The test system of assay [2] is Helicobacter pylori DSM 4867. The experiment in a line: MIC against Helicobacter pylori by micro broth dilution technique. It counts as cell-based. Particulars: H. pylori DSM 4867, micro broth dilution. On the procedure:
as §1, §2
(In general: In broth dilution the organism is exposed to a series of concentrations in liquid medium.)

A short description of assay [3]: DPPH assay for antioxidant activity. The conditions noted are these: DPPH free radical scavenging, mean SEM. The procedure: (§3) As structure of urease from different sources has common structural features therefore urease inhibition studies were carried out on jack bean urease. Inhibition studies were carried out by indophenol technique described by Weatherburn in which measurement of concentration of ammonia released during the reaction between reagents and compounds were done.
Antioxidant nature of the synthesized derivatives was measured by the help of DPPH method. According to this method synthesized compounds were allowed to react for 0.5 h at 37 °C with stable free radical, 1, 1-diphenyl-2-picrylhydrazyl radical (DPPH). The DPPH was taken in a concentration of 300 µM. Decrease in value of absorption at 515 nm was measured after the period of incubation using a microplate reader using ascorbic acid as a standard. Molecule capable of donating proton to DPPH and cause its reduction acts as an antioxidant. Following reduction deep violet coloured DPPH solution changes to yellow depending upon the nature of antioxidant compound, which brings a measurable decrease in value of absorption at 517 nm. The proton or electron donating capacity of the derivative was estimated from the fading of deep purple colored methanolic solution of 1, 1-diphenylpicrylhydrazyl (DPPH). Incubation of mixture was done at room temperature for 30 min and measurements were done at 517 nm against blank. Calculation of percentage inhibition was done by following formula: I\%=AControl-ASample/AControl×100 where, Acontrol is control absorbance; Asample is test absorbance.
On the technique in general: Loss of DPPH colour is used to gauge radical scavenging.

Assay [4] deals with T1, Jack Bean Urease (Canavalia ensiformis, UniProt P07374).
T1 construct: purchased Sigma Aldrich
Kind of assay: biochemical. The procedure: as §3
Urease enzyme inhibition investigation studies for all synthesized compounds were done by the method developed by Weatherburn (1967) named Indophenol against Jack Bean Urease. Briefly, incubation of solution of Jack bean protein 25 μL was done at temperature of 30 °C for a period of 15 min with 55 μL of buffers solution having 100 mM urea and 5 μL of test solution in 96-well plates. 45 μL phenol solution composing phenol 1% w/v and solution of sodium nitroprusside 0.005% w/v and alkali reagent 70 μL composed of sodium hydroxide 0.5% w/v and active sodium hypochloride solution 0.1% were mixed to every well. The measurement of increase in absorption at 625 nm was done after 50 min by help of a microplate reader (Molecular Device, USA). Readings were recorded in triplicate set in a final volume of 200 μL using thiourea as standard. Each assay was performed at pH 8.2 (0.01 M K2HPO4.3H2O, 0.01 M […] and 1 mM EDTA). Calculation of Inhibition in percentage of synthesized derivatives was done by the formula given as: I\%=AControl-ASample/AControl×100 where, Acontrol is control absorbance; Asample is test absorbance.

Assay [5] has as its target T1, Jack Bean Urease. Kind of assay: Enzyme kinetics, Lineweaver-Burk plot. It counts as biochemical. Particulars: varying urea, phosphate buffer, 1 mM EDTA, pH 8.2. On the procedure: Study of inhibitory effect of chlorogenic derivatives on jack bean urease was performed to check the inhibitory potential, kinetics studies and mechanism of inhibition in phosphate buffer and 1 mM EDTA at pH 8.2. […] Competitive inhibition infers that compound C4a will probably compete for binding at the site of substrate in enzyme active site pocket.
(substrate concentration) against 1/[V] velocity. To examine the mode of inhibition compound C4a was solubilized in DMSO and further dilutions were prepared accordingly. Plot was prepared by using varying concentration of substrate (urea) in with varying concentration of inhibitor C4a. Inhibitory constant values (Ki) were determined as the interaction on the X-axis of the plots of the slope against different concentration of derivatives C4a. […] All experiments were performed in triplicate and kinetic study for interaction of enzyme with inhibitor was computed with Graphpad prism 7.0 software.

Converted amounts (≈) assume the structure as drawn. Where two headings read alike, the source gives them in different places.

T1 sequence (P07374 whole entry, looked up): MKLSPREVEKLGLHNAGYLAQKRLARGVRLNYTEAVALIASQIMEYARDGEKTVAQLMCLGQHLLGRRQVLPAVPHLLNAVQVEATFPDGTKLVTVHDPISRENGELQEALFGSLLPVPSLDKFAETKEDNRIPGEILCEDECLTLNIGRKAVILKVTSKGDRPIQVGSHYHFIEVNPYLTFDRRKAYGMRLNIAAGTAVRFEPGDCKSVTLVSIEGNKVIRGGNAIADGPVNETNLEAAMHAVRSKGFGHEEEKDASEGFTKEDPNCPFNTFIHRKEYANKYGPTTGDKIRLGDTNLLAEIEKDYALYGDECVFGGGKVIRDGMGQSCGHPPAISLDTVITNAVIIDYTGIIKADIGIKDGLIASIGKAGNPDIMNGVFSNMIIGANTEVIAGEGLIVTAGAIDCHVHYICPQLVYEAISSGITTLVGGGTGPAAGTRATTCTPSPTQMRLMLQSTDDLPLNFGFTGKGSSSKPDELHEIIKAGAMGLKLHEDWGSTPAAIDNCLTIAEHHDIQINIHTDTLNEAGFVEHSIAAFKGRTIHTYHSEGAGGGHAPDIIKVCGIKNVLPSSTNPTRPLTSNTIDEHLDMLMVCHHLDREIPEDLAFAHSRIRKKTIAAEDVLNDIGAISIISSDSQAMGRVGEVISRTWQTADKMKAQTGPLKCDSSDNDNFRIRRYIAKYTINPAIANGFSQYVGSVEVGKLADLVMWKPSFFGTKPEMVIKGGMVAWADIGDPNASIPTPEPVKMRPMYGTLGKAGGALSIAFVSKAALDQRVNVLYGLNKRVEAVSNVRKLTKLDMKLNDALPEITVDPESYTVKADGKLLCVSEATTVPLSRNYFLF

As a reminder, the zone of inhibition is the extent of the growth-free halo in a diffusion test. Lower therefore signals a weaker effect on the plate. The term MIC denotes the lowest concentration that inhibits growth of the organism. Turning to `CC(=O)NO` [AHA, acetohydroxamic acid, reference compound], in assay [1], the zone of inhibition is given as 9.00 ± 0.50 mm. Also, the MIC in assay [2] amounted to 1000 µg/mL (≈ 13300 µM).
For orientation: IC50 means the concentration that inhibits the measured activity by half. `O=C1O[C@H]([C@@H](O)CO)C(O)=C1O` [Ascorbic acid, ascorbic acid, reference compound]: in assay [3], the midpoint of inhibition, the IC50, lay at 8.59 ± 0.004 µM.
For the compound `O=C(/C=C/c1ccc(O)c(O)c1)O[C@@H]1C[C@](O)(C(=O)Nc2ccc([N+](=O)[O-])cc2Cl)CC(O)C1O` (stereo partly drawn) [C4a, (1R, 5S)-5-((2-chloro-4-nitrophenyl)carbamoyl)-2,3,5-trihydroxycyclohexyl (2E)-3-(3,4-dihydroxyphenyl)prop-2-enoate], the IC50 against Jack Bean Urease [4] is 11.01 ± 0.013 µM; in assay [3], 5.1 ± 0.018 µM. For the same compound, the zone of inhibition in assay [1] came out at 10.00 ± 0.00 mm. Also, in assay [2] (Helicobacter pylori, DSM4867, read-out: MIC), the MIC was 500 µg/mL (≈ 983 µM). Besides, at Jack Bean Urease [5], the mode of inhibition entry is reported as “competitive type of Inhibition”.
Regarding `O=C(/C=C/c1ccc(O)c(O)c1)O[C@@H]1C[C@](O)(C(=O)Nc2ccc(Cl)cc2[N+](=O)[O-])CC(O)C1O` (stereo partly drawn) [C4b, (1R, 5S)-5-((4-chloro-2-nitrophenyl)carbamoyl)-2,3,5-trihydroxycyclohexyl (2E)-3-(3,4-dihydroxyphenyl)prop-2-enoate], the IC50 amounted to 15.86 ± 0.004 µM at Jack Bean Urease [4] and 6.01 ± 0.005 µM in assay [3].
As for `O=C(/C=C/c1ccc(O)c(O)c1)O[C@@H]1C[C@](O)(C(=O)Nc2ccc(Br)cc2)CC(O)C1O` (stereo partly drawn) [C4c, (1R, 5S)-5-((4-bromophenyl)carbamoyl)-2,3,5-trihydroxycyclohexyl (2E)-3-(3,4-dihydroxyphenyl)prop-2-enoate], the IC50 against Jack Bean Urease [4] turned out to be 22.02 ± 0.027 µM; in assay [3], 8.48 ± 0.026 µM.
As for `O=C(/C=C/c1ccc(O)c(O)c1)O[C@@H]1C[C@](O)(C(=O)Nc2cccc([N+](=O)[O-])c2)CC(O)C1O` (stereo partly drawn) [C4d, (1R, 5S)-2,3,5-trihydroxy-5-((3-nitrophenyl)carbamoyl)cyclohexyl (2E)-3-(3,4-dihydroxyphenyl)prop-2-enoate], the IC50 was found to be 13.8 ± 0.041 µM against Jack Bean Urease [4] and 5.34 ± 0.007 µM in assay [3].
Turning to `COc1cccc(NC(=O)[C@]2(O)CC(O)C(O)[C@H](OC(=O)/C=C/c3ccc(O)c(O)c3)C2)c1` (stereo partly drawn) [C4e, (1R, 5S)-2,3,5-trihydroxy-5-((3-methoxyphenyl)carbamoyl) cyclohexyl (2E)-3-(3,4-dihydroxyphenyl)prop-2-enoate], the IC50 on Jack Bean Urease [4] is 20.6 ± 0.001 µM; in assay [3], 6.85 ± 0.02 µM.
As to `COc1ccc(NC(=O)[C@]2(O)CC(O)C(O)[C@H](OC(=O)/C=C/c3ccc(O)c(O)c3)C2)cc1` (stereo partly drawn) [C4f, (1R, 5S)-2,3,5-trihydroxy-5-((4-methoxyphenyl)carbamoyl)cyclohexyl (2E)-3-(3,4-dihydroxyphenyl)prop-2-enoate], the half-maximal inhibitory concentration (IC50) against Jack Bean Urease [4] was determined as 21.83 ± 0.009 µM; in assay [3], 7.89 ± 0.006 µM.
As for `Cc1ccccc1NC(=O)[C@]1(O)CC(O)C(O)[C@H](OC(=O)/C=C/c2ccc(O)c(O)c2)C1` (stereo partly drawn) [C4g, (1R, 5S)-2,3,5-trihydroxy-5-((2-methylphenyl)carbamoyl)cyclohexyl (2E)-3-(3,4-dihydroxyphenyl)prop-2-enoate], the IC50 at Jack Bean Urease [4] was 21.5 ± 0.032 µM; in assay [3], 7.75 ± 0.011 µM.
Taken in the same sequence, the figures for `O=C(/C=C/c1ccc(O)c(O)c1)O[C@@H]1C[C@](O)(C(=O)Nc2ccccc2F)CC(O)C1O` (stereo partly drawn) [C4h, (1R, 5S)-5-((2-fluorophenyl)carbamoyl)-2,3,5-trihydroxycyclohexyl (2E)-3-(3,4-dihydroxyphenyl)prop-2-enoate] were 21.24 ± 0.016 µM and 7.23 ± 0.008 µM.
With `O=C(/C=C/c1ccc(O)c(O)c1)O[C@@H]1C[C@](O)(C(=O)O)C[C@@H](O)[C@H]1O` [CHLG, chlorogenic acid, reference compound], at Jack Bean Urease [4], the IC50 came to 22.68 ± 0.006 µM.
`NC(N)=S` [Thiourea, thiourea, reference compound]: at Jack Bean Urease [4] (jack bean urease, indophenol method, pH 8.2, mean SEM, read-out: IC50 (µM) urease inhibition), the IC50 came out at 22.8 ± 0.011 µM.
